Test results published in patent publication US20100113272A1, “HERBICIDAL COMPOSITION AND METHOD OF USE THEREOF” (SYNGENTA CORP PROTECTION, INC., priority 2006, published 2010).

What was measured:
large crabgrass = assay: Glasshouse trial, control of large crabgrass, mesotrione and prodiamine spray applied pre-emergence; format: in vivo, Digitaria sanguinalis; conditions: for control of large crabgrass on its own: spray pre-emergence, 7 DAT
Procedure: A glasshouse trial was carried out. Large crabgrass seeds were sown into standard glasshouse potting mix (1:1 v/v Promix:Vero sand soil) contained in 10 cm square plastic pots. Treatments were replicated three times. Mesotrione (in the form Callisto® 480SE) was applied pre-emergence to large crabgrass at either 12 g ai/ha or 24 g ai/ha with or without prodiamine (in the form Barricade® 4FL). When used, prodiamine was applied at a rate of 53 g ai/ha or 105 g ai/ha. The adjuvant system was X-77 at 0.1% v/v in deionised water. 200 litres of herbicide/adjuvant system was used per hectare. General weed control was evaluated at 7 and 14 days after treatment (DAT).
It is noted that control of large crabgrass with mesotrione alone applied pre-emergence at the higher rate (24 g ai/ha) was high; thus it was not possible to detect synergy when mesotrione was mixed with prodiamine. […] The results were evaluated using the Colby formula. The expected result for (A+B) is (A+B)−(A×B/100) where A and B are the ‘observed’ results for A and B on their own.

[1] = system: large crabgrass (Digitaria sanguinalis); assay: Glasshouse trial, control of large crabgrass, mesotrione and prodiamine spray applied post-emergence; format: in vivo; conditions: for control of large crabgrass on its own: spray post-emergence, 14 DAT
Procedure: A glasshouse trial was carried out. Large crabgrass seeds were sown into standard glasshouse potting mix (1:1 v/v Promix:Vero sand soil) contained in 10 cm square plastic pots. Treatments were replicated three times. Mesotrione (in the form Callisto® 480SE) was applied post-emergence to large crabgrass (Digitaria sanguinalis) at either 12 g ai/ha or 24 g ai/ha with or without prodiamine (in the form Barricade® 4FL). When used, prodiamine was applied at a rate of 210 g ai/ha or 420 g ai/ha. The adjuvant system was X-77 at 0.1% v/v in deionised water. 200 litres of herbicide/adjuvant system was used per hectare. General weed control was evaluated at 7 and 14 days after treatment (DAT). It is noted that all herbicides were applied at reduced field rates because herbicide effects are magnified in a glasshouse environment. Rates were chosen to give a 50 to 70% level of control with herbicides applied alone as this allows for detection of any synergistic effect when tank mixtures are used.
The results were evaluated using the Colby formula. The expected result for (A+B) is (A+B)−(A×B/100) where A and B are the ‘observed’ results for A and B on their own.

SMILES | control of large crabgrass on its own (large crabgrass; mesotrione alone, 12 g ai/ha) [%] | control of large crabgrass with mesotrione alone (large crabgrass; pre-emergence at the higher rate (24 g ai/ha)) | control of large crabgrass on its own ([1]; mesotrione alone at the higher rate (24 g ai/ha)) [%] | control of large crabgrass on its own ([1]; mesotrione alone at the lower rate (12 g ai/ha)) [%] | control of large crabgrass with mesotrione alone ([1]; post-emergence, 7 DAT) | control of large crabgrass on its own (large crabgrass; prodiamine alone, 105 g ai/ha) [%] | control of large crabgrass on its own ([1]; prodiamine alone, 210 or 420 g ai/ha)
CS(=O)(=O)c1ccc(C(=O)C2C(=O)CCCC2=O)c([N+](=O)[O-])c1 [Mesotrione, 2-(2′-nitro-4′-methylsulphonylbenzoyl)-1,3-cyclohexanedione] | 50 | high | 66.7 | 46.7 | relatively high | – | –
CCCN(CCC)c1c([N+](=O)[O-])cc(C(F)(F)F)c(N)c1[N+](=O)[O-] [Prodiamine, N^3,N^3-di-n-propyl-2,4-dinitro-6-(trifluoromethyl)-m-phenylenediamine] | – | – | – | – | – | 76 | no control
